# Like-named read-outs stand apart in the source and are kept apart here.
# What was measured:
# [1] = test system: CAL-120 human breast adenocarcinoma cells; assay: Proliferation assay CAL-120 (crystal violet); type: cell-based; conditions: CAL-120 cells, 4 days, median, read-out: Prolif-CAL-120— IC50 - [mol/l] (median)
# Protocol: 4. Proliferation assay: MDA-MB-231, CAL-120
# Human tumour cells were originally obtained from the American Type Culture Collection (ATCC), or from the Deutsche Sammlung von Mikroorganismen and Zellkulturen (DSMZ, German Collection of Microorganisms and Cell Cultures). Cultivated tumour cells (CAL-120, human breast adenocarcinoma cells, DSMZ ACC-459; MDA-M B-231, human breast cancer cells, ATCC HTB-26) were plated at a density of 4,000 cells/well in a 96-well multititer plate in 200 microL of their respective growth medium supplemented 10% fetal calf serum. After 24 hours, the cells of one plate (zero-point plate) were stained with crystal violet (see below), while the medium of the other plates was supplemented with the test substances in various concentrations (0 micromol/L, as well as in the range of 0.01-10 micromol/L; the final concentration of the solvent dimethyl sulfoxide was adjusted to 0.1%) using a Tecan HP D300 Digital Dispenser. The cells were incubated for 4 days in the presence of test substances. Cell proliferation was determined by staining the cells with crystal violet: the cells were fixed by adding 20 microL/measuring point of an 11% glutaric aldehyde solution for 15 minutes at room temperature. After three washing cycles of the fixed cells with water, the plates were dried at room temperature. The cells were stained by adding 100 microL/measuring point of a 0.1% crystal violet solution (pH 3.0). After three washing cycles of the stained cells with water, the plates were dried at room temperature. The dye was dissolved by adding 100 microL/measuring point of a 10% acetic acid solution. The extinction was determined by photometry at a wavelength of 595 nm. The change of cell number, in percent, was calculated by normalization of the measured values to the extinction values of the zero-point plate(=0%) and the extinction of the untreated (0 μM) cells(=100%). The IC50 values (inhibitory concentration at 50% of maximal effect) were determined by means of a 4 parameter fit.
# [2] = target: T1, CDK12/CyclinK (Homo sapiens, UniProt Q9NYV4); assay: CDK12/CycK high ATP kinase assay (TR-FRET); type: biochemical; conditions: 2 mM ATP (high ATP); median; read-out: CDK12/CyclinK, 2 mM ATP (high ATP), IC50 - [mol/l] (median)
# T1 construct: His-CDK12 (aa Q696-S1082); made in house; host or cells: Hi-5 insect cells (baculovirus co-infection with CycK and yeast CAK1)
# T1 sequence (Q9NYV4 with tags, fused parts or gaps): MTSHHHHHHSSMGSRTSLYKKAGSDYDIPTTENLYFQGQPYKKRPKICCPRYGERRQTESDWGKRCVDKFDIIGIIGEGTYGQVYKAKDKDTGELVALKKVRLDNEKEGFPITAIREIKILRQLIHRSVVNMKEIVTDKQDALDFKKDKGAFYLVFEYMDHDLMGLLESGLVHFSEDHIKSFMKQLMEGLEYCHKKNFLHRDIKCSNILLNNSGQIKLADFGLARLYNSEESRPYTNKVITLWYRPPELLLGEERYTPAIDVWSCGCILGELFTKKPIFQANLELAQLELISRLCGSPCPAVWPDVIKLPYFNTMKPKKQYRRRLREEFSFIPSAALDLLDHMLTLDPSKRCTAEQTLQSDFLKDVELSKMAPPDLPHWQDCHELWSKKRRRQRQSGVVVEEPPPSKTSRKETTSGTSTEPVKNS
# T1 sequence (O75909 with tags, fused parts or gaps partner limits assumed): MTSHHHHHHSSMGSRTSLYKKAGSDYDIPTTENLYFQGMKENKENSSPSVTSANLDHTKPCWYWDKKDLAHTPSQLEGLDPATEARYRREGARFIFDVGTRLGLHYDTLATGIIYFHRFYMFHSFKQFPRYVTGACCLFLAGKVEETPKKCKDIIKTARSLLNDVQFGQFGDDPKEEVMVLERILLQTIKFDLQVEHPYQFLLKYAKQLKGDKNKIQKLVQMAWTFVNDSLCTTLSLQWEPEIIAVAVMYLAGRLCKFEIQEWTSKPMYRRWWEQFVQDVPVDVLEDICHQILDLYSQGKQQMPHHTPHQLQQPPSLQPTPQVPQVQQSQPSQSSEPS
# Excerpt: 2.2 CDK12/CycK high ATP Kinase Assay
# In the context of the present invention, the term “IC50 CDK12 hATP” refers to the ICso values obtained according to the assay described in this section (2.2) herein below, i.e. the IC50 values for the inhibition of CDK12 at high ATP.
# CDK12/CycK -inhibitory activity of compounds of the present invention at 2 millimol/L adenosine-tri-phosphate (ATP) was quantified employing the TR-FRET (TR-FRET=Time Resolved Fluorescence Energy Transfer) based CDK12/CycK activity inhibition assay as described in the following paragraphs.
# A complex of human recombinant CDK12 and human recombinant CycK (both N-terminally His-tagged, expression and purification as described above) was used as enzyme. As substrate for the kinase reaction biotinylated peptide biotin-Ahx-KFELLPTPPLSPSRRSGL (C-terminus in amid form) was used which can be purchased e.g. form the company Biosyntan (Berlin-Buch, Germany).
# For the assay 50 nanoL of a 100 fold concentrated solution of the test compound in DMSO was pipetted into either a black low volume 384 well microtiter plate or a black 1536 well microtiter plate (both Greiner Bio-One, Frickenhausen, Germany), 2 microL of a solution of CDK12/CycK in aqueous assay buffer [25 millimol/L HEPES pH 7.5, 20 millimol/L MgCl2, 5 millimol/L β-glycerophosphate, 2 millimol/L EGTA, 1.0 millimol/L dithiothreitol, 0.01% (v/v) Nonidet-P40 (Sigma), 0.01% (w/v) bovine serum albumin] were added and the mixture was incubated for 15 min at 22° C. to allow pre-binding of the test compounds to the enzyme before the start of the kinase reaction. Then the kinase reaction was started by the addition of 3 microL of a solution ATP (3.33 millimol/L=>final conc. in the 5 microL assay volume is 2 millimol/L) and substrate (1.67 micromol/L=>final conc. in the 5 microL assay volume is 1 micromol/L) in assay buffer and the resulting mixture was incubated for a reaction time of 60 min at 22° C. The concentration of CDK12/CycK was adjusted depending of the activity of the enzyme lot and was chosen appropriate to have the assay in the linear range, typical concentrations were about 0.75 nanomol/L. The reaction was stopped by the addition of 3 microL of a solution of TR-FRET detection reagents (125 nanomol/L streptavidine-XL665 [Cisbio Bioassays, Codolet, France] and 0.67 nanomol/L anti-Phospho-c-Myc (Ser 62) (E1J4K)-antibody from Cell Signalling [#13748] and 2 nanomol/L LANCE EU-W1024 labeled anti-rabbit IgG antibody [Perkin-Elmer, product no. 0083]) in an aqueous EDTA-solution (133 millimol/L EDTA, 0.27% (w/v) bovine serum albumin in 66.7 millimol/L HEPES pH 7.5).
# The resulting mixture was incubated 1 h at 22° C. to allow the formation of complex between the phosphorylated biotinylated peptide and the detection reagents. Subsequently the amount of phosphorylated substrate was evaluated by measurement of the resonance energy transfer from the Eu-chelate to the streptavidine-XL. Therefore, the fluorescence emissions at 620 nm and 665 nm after excitation at 350 nm was measured in a TR-FRET reader, e.g. a Pherastar FS (BMG Labtechnologies, Offenburg, Germany) or a Viewlux (Perkin-Elmer). The ratio of the emissions at 665 nm and at […] was taken as the measure for the amount of phosphorylated substrate. The data were normalised (enzyme reaction without inhibitor=0% inhibition, all other assay components but no enzyme=100% inhibition).
Compound,"IC50 ([1]; Homo sapiens, CAL-120, 96 h) [nM]",IC50 [2] [nM],IC50 [1] [nM]
"CC(CCN(C)C)n1nc(NCc2nc3ccccc3[nH]2)c2ncc(C3CC3)nc21 (single isomer, unassigned) [Example 64, (−) or(+)-N-[(1H-benzimidazol-2-yl)methyl]-6-cyclopropyl-1-[4-(dimethylamino)butan-2-yl]-1H-pyrazolo[3,4-b]pyrazin-3-amine]",,> 20000,295
"CN1CCC(n2nc(NCc3nc4ccccc4[nH]3)c3ncc(C4CC4)nc32)C1 (single isomer, unassigned) [Example 78, (+) or (−)-N-[(1H-benzimidazol-2-yl)methyl]-6-cyclopropyl-1-(1-methylpyrrolidin-3-yl)-1H-pyrazolo[3,4-b]pyrazin-3-amine]",,> 20000,11.2
"CN1CCC(n2nc(NCc3nc4ccccc4[nH]3)c3ncc(C4CC4)nc32)C1 (single isomer, unassigned) [Example 79, (−) or (+)-N-[(1H-benzimidazol-2-yl)methyl]-6-cyclopropyl-1-(1-methylpyrrolidin-3-yl)-1H-pyrazolo[3,4-b]pyrazin-3-amine]",,> 20000,71.4
"COCCC(C)n1nc(NCc2nc3ccccc3[nH]2)c2ncc(C3CC3)nc21 (single isomer, unassigned; (+)) [Example 59, (+)-N-[(1H-benzimidazol-2-yl)methyl]-6-cyclopropyl-1-[4-methoxybutan-2-yl]-1H-pyrazolo[3,4-b]pyrazin-3-amine]",,> 20000,440
"COCCC(C)n1nc(NCc2nc3ccccc3[nH]2)c2ncc(C3CC3)nc21 (single isomer, unassigned; (-)) [Example 58, (−)-N-[(1H-benzimidazol-2-yl)methyl]-6-cyclopropyl-1-[4-methoxybutan-2-yl]-1H-pyrazolo[3,4-b]pyrazin-3-amine]",,> 20000,156
"CN1CCC(n2nc(NCc3nc4ccccc4[nH]3)c3ncc(C4CC4)nc32)CC1 [Example 1, N-[(1H-benzimidazol-2-yl)methyl]-6-cyclopropyl-1-(1-methylpiperidin-4-yl)-1H-pyrazolo[3,4-b]pyrazin-3-amine]",32.8,> 20000,
"COc1cccc2[nH]c(CNc3nn(C4CCN(C)CC4)c4nc(C5CC5)cnc34)nc12 [Example 2, 6-cyclopropyl-N-[(4-methoxy-1H-benzimidazol-2-yl)methyl]-1-(1-methylpiperidin-4-yl)-1H-pyrazolo[3,4-b]pyrazin-3-amine]",11,> 20000,
"CN1CCC(n2nc(NCc3nc4cc(F)ccc4[nH]3)c3ncc(C4CC4)nc32)CC1 [Example 4, 6-cyclopropyl-N-[(5-fluoro-1H-benzimidazol-2-yl)methyl]-1-(1-methylpiperidin-4-yl)-1H-pyrazolo[3,4-b]pyrazin-3-amine]",16.3,> 20000,
"CN1CCC(n2nc(NCc3nc4c(C(F)(F)F)cccc4[nH]3)c3ncc(C4CC4)nc32)CC1 [Example 7, 6-cyclopropyl-1-(1-methylpiperidin-4-yl)-N-{[4-(trifluoromethyl)-1H-benzimidazol-2-yl]methyl}-1H-pyrazolo[3,4-b]pyrazin-3-amine]",10.5,> 20000,
"Cc1cccc2[nH]c(CNc3nn(C4CCN(C)CC4)c4nc(C5CC5)cnc34)nc12 [Example 8, 6-cyclopropyl-N-[(4-methyl-1H-benzimidazol-2-yl)methyl]-1-(1-methylpiperidin-4-yl)-1H-pyrazolo[3,4-b]pyrazin-3-amine]",14.2,> 20000,
"CN1CCC(n2nc(NCc3nc4c(F)c(F)ccc4[nH]3)c3ncc(C4CC4)nc32)CC1 [Example 9, 6-cyclopropyl-N-[(4,5-difluoro-1H-benzimidazol-2-yl)methyl]-1-(1-methylpiperidin-4-yl)-1H-pyrazolo[3,4-b]pyrazin-3-amine]",6.78,> 20000,

# Continued, values first:
"IC50 ([1]; Homo sapiens, CAL-120, 96 h) [nM]",IC50 [2] [nM],IC50 [1] [nM],Compound
70.3,> 20000,,"c1ccc2[nH]c(CNc3nn(C4CCOC4)c4nc(C5CC5)cnc34)nc2c1 (single isomer, unassigned) [Example 17, (+) or (−)-N-[(1H-benzimidazol-2-yl)methyl]-6-cyclopropyl-1-(oxolan-3-yl)-1H-pyrazolo[3,4-b]pyrazin-3-amine]"
,> 20000,71.9,"c1ccc2[nH]c(CNc3nn(C4CCOC4)c4nc(C5CC5)cnc34)nc2c1 (single isomer, unassigned) [Example 18, (-) or (+) -N-[(1H-benzimidazol-2-yl)methyl]-6-cyclopropyl-1-[oxolan-3-yl]-1H-pyrazolo[3,4-b]pyrazin-3-amine]"
,> 20000,4.14,"CN1CCCC(n2nc(NCc3nc4ccccc4[nH]3)c3ncc(C4CC4)nc32)CC1 (single isomer, unassigned) [Example 37, (+) or (−)-N-[(1H-benzimidazol-2-yl)methyl]-6-cyclopropyl-1-[(4R*)-1-methylazepan-4-yl]-1H-pyrazolo[3,4-b]pyrazin-3-amine]"
,> 20000,9.85,"CN1CCCC(n2nc(NCc3nc4ccccc4[nH]3)c3ncc(C4CC4)nc32)CC1 (single isomer, unassigned) [Example 38, (−) or (+)-N-[(1H-benzimidazol-2-yl)methyl]-6-cyclopropyl-1-[(4R*)-1-methylazepan-4-yl]-1H-pyrazolo[3,4-b]pyrazin-3-amine]"
,> 20000,878,"CC(CCN(C)C)n1nc(NCc2nc3ccccc3[nH]2)c2ncc(C3CC3)nc21 (single isomer, unassigned) [Example 63, (+) or (−)-N-[(1H-benzimidazol-2-yl)methyl]-6-cyclopropyl-1-[4-(dimethylamino)butan-2-yl]-1H-pyrazolo[3,4-b]pyrazin-3-amine]"
3.3,≥ 11600,,"CN1CCC(n2nc(NCc3nc4c(F)cccc4[nH]3)c3ncc(C4CC4)nc32)CC1 [Example 3, 6-cyclopropyl-N-[(4-fluoro-1H-benzimidazol-2-yl)methyl]-1-(1-methylpiperidin-4-yl)-1H-pyrazolo[3,4-b]pyrazin-3-amine]"
